According to EP4167978B1, “USE OF JUNIPER (JUNIPERUS COMMUNIS) BERRIES EXTRACT, DEOXYPODOP[…] […], AS POSITIVE ALLOSTERIC MODULATORS OF CANNABINOID TYPE 1 RECEPTOR FOR TREATING NEUROPATHIC PAIN AND IN[…]” (Vivacell Biotechnology Espana S.L., priority 2020, dated 2022):

How the values were obtained:
human CB1R [1] = biological target: T1, human CB1R (Homo sapiens, UniProt P21554); experiment: CB1R positive allosteric modulation (PAM) activity, CRE-luciferase reporter in the presence of the orthosteric agonist CP-55,940; format: cell-based; conditions: for percentage of CB1R activity normalized to 100% stimulation induced by 2.5 µM CP-55,940 alone: HEK293T-CB1-CRE-luc cells, tested at 1, 5, 10 and 25 µg/mL in the presence of 2.5 µM CP-55,940, CB1R activity ≥ 150% is considered CB1R PAM activity; for CB1R PAM activity: result in words, HEK293T-CB1-CRE-luc cells with 2.5 µM CP-55,940
T1 construct: expressed in transfected cells; host or cells: HEK293T (HEK293T-CB1-CRE-Luc)
Experimental: The determination of CB1R activity was carried out using the HEK293T-CB1-CRE-Luc cells stably transfected with the human CB1R cDNA, and a construction of CRE-Luc that contains as promoter six consensus cAMP responsive elements (CRE) linked to firefly luciferase reporter gene. The increase in cAMP levels activates the CRE-Luc system, inducing the expression of the luciferase reporter gene. Briefly, HEK293T-CB1-CRE-Luc cells were cultured in supplemented DMEM (Sigma) medium containing 10% FBS (Gibco) and 1% antibiotics penicillin/streptomycin (Sigma) (DMEM complete medium) and maintained at 37° C in a humidified atmosphere of 5% CO2. The day before the assay 10^4 cells per well were seeded in 96 well-plates and incubated overnight. For determining CB1R positive allosteric modulation (PAM) activity, HEK293T-CB1-CRE-Luc cells were treated with increasing concentrations of the fractions for 30 min and then treated with the CB1R orthosteric agonist CP-55,940 at 2.5 µM. For CB1R agonistic activity, HEK293T-CB1-CRE-Luc cells were treated with increasing concentrations of the fractions. CP-55,940 alone, a CB1R orthosteric agonist, was used at 2.5 µM as positive control of cAMP signaling pathway activated by a CB1R-dependent orthosteric mechanism; and cells without stimulus were used as negative control. In both assays, after 6 h of stimulation, cells were washed twice with PBS 1X and lysed in 100 µL lysis buffer containing 25 mM Tris-phosphate (pH 7.8), 8 mM MgCl2, 1 mM DTT, 1% Triton X-100, and 7% glycerol during 15 min at room temperature in a horizontal shaker. Luciferase activity was measured using a TriStar2 Berthold/LB942 multimode reader (Berthold Technologies) following the instructions of the luciferase assay kit (Promega, Madison, Wl, USA). The RLUs (relative light units) were calculated and: (i) For allosteric activity, results were expressed as percentage of CB1R activity normalized to 100% stimulation induced by 2.5 µM CP-55,940, according to the following formula: Percentage of CB1R activity = 100 * (T - B) / (C - B); where T are the RLUs of the cells treated with the fractions and 2.5 µM CP-55,940; C are the RLUs of the cells treated with CP-55,940 alone, and B are the RLUs of the cells without stimulus. CB1R activity ≥ 150% was considered CB1R PAM activity (ii) For the CB1R agonistic activity, results were expressed as a fold change over non-stimulated cells according to the following formula: Fold change of CB1R activity = T / B; where T are RLUs of the cells treated with the fractions and B are the RLUs of the cells without stimulus. CB1R activity ≥ 2.5-fold increase is considered CB1R agonistic activity.

human CB1R [2] = biological target: T1, human CB1R; experiment: CB1R agonistic activity, CRE-luciferase reporter without CP-55,940; format: cell-based; conditions: HEK293T-CB1-CRE-luc cells, compound alone
Experimental: The determination of CB1R activity was carried out using the HEK293T-CB1-CRE-Luc cells stably transfected with the human CB1R cDNA, and a construction of CRE-Luc that contains as promoter six consensus cAMP responsive elements (CRE) linked to firefly luciferase reporter gene. The increase in cAMP levels activates the CRE-Luc system, inducing the expression of the luciferase reporter gene. Briefly, HEK293T-CB1-CRE-Luc cells were cultured in supplemented DMEM (Sigma) medium containing 10% FBS (Gibco) and 1% antibiotics penicillin/streptomycin (Sigma) (DMEM complete medium) and maintained at 37° C in a humidified atmosphere of 5% CO2. […] Luciferase activity was measured using a TriStar2 Berthold/LB942 multimode reader (Berthold Technologies) following the instructions of the luciferase assay kit (Promega, Madison, Wl, USA). The RLUs (relative light units) were calculated and: (i) For allosteric activity, results were expressed as percentage of CB1R activity normalized to 100% stimulation induced by 2.5 µM CP-55,940, according to the following formula: Percentage of CB1R activity = 100 * (T - B) / (C - B); where T are the RLUs of the cells treated with the fractions and 2.5 µM CP-55,940; C are the RLUs of the cells treated with CP-55,940 alone, and B are the RLUs of the cells without stimulus. […]

T1 sequence (P21554 whole entry): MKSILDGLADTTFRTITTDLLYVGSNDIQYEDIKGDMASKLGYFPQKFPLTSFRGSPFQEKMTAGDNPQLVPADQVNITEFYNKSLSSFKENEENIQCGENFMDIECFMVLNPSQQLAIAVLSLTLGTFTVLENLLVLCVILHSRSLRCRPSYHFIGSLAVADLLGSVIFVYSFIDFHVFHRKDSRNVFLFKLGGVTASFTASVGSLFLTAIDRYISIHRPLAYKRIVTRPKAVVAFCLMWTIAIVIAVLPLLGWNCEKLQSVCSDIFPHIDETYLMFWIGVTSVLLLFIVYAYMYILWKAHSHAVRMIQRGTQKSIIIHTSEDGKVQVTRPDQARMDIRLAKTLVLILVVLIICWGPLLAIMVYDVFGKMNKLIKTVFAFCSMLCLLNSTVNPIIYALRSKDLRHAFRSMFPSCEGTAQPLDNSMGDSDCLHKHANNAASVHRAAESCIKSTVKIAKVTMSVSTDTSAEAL

SMILES	percentage of CB1R activity normalized to 100% stimulation induced by 2.5 µM CP-55,940 alone (human CB1R [1])	CB1R PAM activity (human CB1R [1])	CB1R PAM activity (human CB1R [1]; listed as Agathadiol)	CB1R agonistic activity on cAMP signaling pathway (human CB1R [2]; at high concentrations, ≥ 2.5-fold increase over non-stimulated cells is considered agonistic)	CB1R agonistic activity on cAMP signaling pathway (human CB1R [2]; at the lower tested concentration)
C=C1CC[C@H]2[C@@](C)(CO)CCC[C@]2(C)[C@H]1CC/C(C)=C/CO [agathadiol, (E)-5-[(1S,4aR,5S,8aR)-5-(hydroxymethyl)-5,8a-dimethyl-2-methylidene-3,4,4a,6,7,8-hexahydro-1H-naphthalen-1-yl]-3-methylpent-2-en-1-ol]	over 1000%	clear CB1R PAM activities at a range of concentrations	increasingly stronger bioactive effect as PAM of CB1R with increasing concentrations	medium CB1R agonistic activity	residual
COc1cc([C@H]2c3cc4c(cc3C[C@@H]3COC(=O)[C@H]32)OCO4)cc(OC)c1OC [deoxypodophyllotoxin, (5S,5aS,8aS)-5-(3,4,5-trimethoxyphenyl)-5a,8,8a,9-tetrahydro-5H-[2]benzofuro[5,6-f][1,3]benzodioxol-6-one]	over 1000%	clear CB1R PAM activities at a range of concentrations	–	–	–
